Assay results: patent publication US20070104750A1, “Pesticidally active compositions having enhanced activity” (priority 2005, published 2007)
Where two headings read alike, the source gives them in different places.

What was measured:
[1] = Text: Determination of whether a pesticidally active ingredient is reactive with singlet oxygen can be determined from a simple singlet oxygen reactivity test, comprising irradiating a solution of a pesticidally active ingredient in the presence of a photosensitizer, e.g. methylene blue or rose bengal, with a suitable light source, e.g. a sodium lamp, whose spectral output is capable of allowing light absorption by the photo-sensitizer while bypassing the absorption band of the pesticidally active ingredient. The light source, in combination with the photosensitizer and molecular oxygen, will generate singlet oxygen. The observed degradation of the pesticidally active ingredient by a suitable analytical technique, such as HPLC, is indicative of its reaction with singlet oxygen. This test can be conducted in solvents in which singlet oxygen has a relatively long lifetime, e.g. perdeuterated versions of common solvents and carbon disulfide in order to speed the rate of reaction and thereby maximize the detectability of the degradation. Decay constants for singlet oxygen in various solvents are well known in the art and can be found in J. Phys. […] An Expanded and Revised Compilation” by Francis Wilkinson, W. Phillip Helman and Alberta B. Ross; Table 1, entitled Decay Constants for Singlet Oxygen in Various Solvents.
Confirmation of the degradation of the pesticidally active ingredient by singlet oxygen can be obtained further by adding a molecule which is capable of deactivating singlet oxygen by physical or chemical means, i.e. a singlet oxygen quencher, to the pesticidally active ingredient-photosensitizer solution. Suitable singlet oxygen quenchers include, for example DABCO (1,4-diazabicyclo[2.2.2]octane) and beta-carotene. A reduction in the rate of degradation of the pesticidally active ingredient in the presence of a singlet oxygen quencher confirms that the initial degradation was due to the reaction with singlet oxygen.
The solution was irradiated with a Philips 150 watt high pressure sodium lamp (sample was ca. 20 cm from lamp). […] The experiment was repeated with the inclusion of the singlet oxygen quencher DABCO (1.0×10^−3M, diazabicyclooctane Aldrich). A value greater than one indicates a slowing of the degradation due to singlet oxygen in the presence of the quencher.

[2] = tested on: beet armyworm (Spodoptera exigua) larvae
[3] = activity enhancer alone, 1000 ppm, 9 DAT
[4] = activity enhancer alone, 10,000 ppm, 4 DAT
[5] = activity enhancer alone, 10,000 ppm, 7 DAT

Work on Abamectin yielded a kwo/kw ([1]; potential activity enhancer Zein, weight ratio I/II 1:20, isopropanol(85)/water(15)) of 1.0 and a kwo/kw ([1]; quencher DABCO, weight ratio active ingredient/DABCO 7.8:1, acetonitrile-d3) of 37.2.

For CC(Cc1ccc(C(C)(C)C)cc1)CN1C[C@@H](C)O[C@@H](C)C1 (stereo partly drawn) [Fenpropimorph], the kwo/kw ([1]; quencher DABCO, weight ratio active ingredient/DABCO 2.7:1, acetonitrile) was 7.7.

In the case of CCO[C@@H]1[C@@H](OC)[C@H](C)O[C@@H](O[C@@H]2C[C@H]3CC[C@@H]4[C@@H](C=C5C(=O)[C@H](C)[C@@H](O[C@H]6CC[C@H](N(C)C)[C@@H](C)O6)CCC[C@H](CC)OC(=O)C[C@H]54)[C@@H]3C2)[C@@H]1OC [DE-175 J, (2R,3aR,5aR,5bS,9S,13S,14R,16aS,16bR)-13-{[(2R,5S,6R)-5-(dimethylamino)-6-methyltetrahydro-2H-pyran-2-yl]oxy}-9-ethyl-14-methyl-7,15-dioxo-2,3,3a,4,5,5a,5b,6,7,9,10,11,12,13,14,15,16a,16b-octadecahydro-1H-as-indaceno[3,2-d]oxacyclododecin-2-yl 6-deoxy-3-O-ethyl-2,4-di-O-methyl-α-L-mannopyranoside], the “rate constant for the degradation” value [1] is reported as 0.1317 min⁻¹, the kwo/kw ([1]; potential activity enhancer TEPA, weight ratio I/II 3.3:1, acetonitrile) is reported as 1.9 and the kwo/kw ([1]; potential activity enhancer Tryptophan, weight ratio I/II 1:1, methanol) is reported as 1.15. It also gave a kwo/kw ([1]; potential activity enhancer Tryptophan, weight ratio I/II 1:10, methanol) of 1.3, a kwo/kw ([1]; potential activity enhancer Zein, weight ratio I/II 1:5, isopropanol(85)/water(15)) of 1.0 and a kwo/kw ([1]; quencher DABCO, weight ratio active ingredient/DABCO 3.3:1, acetonitrile) of 5.1.

C1N2CN3CN1CN(C2)C3 [HMTA, hexamethylenetetramine] showed a Percent mortality [2, 3] of 4%.

With C=CCOC(Cn1ccnc1)c1ccc(Cl)cc1Cl (stereo not drawn) [Imazalil] the kwo/kw ([1]; quencher DABCO, weight ratio active ingredient/DABCO 2.6:1, acetonitrile) was 4.4.

With “BSA (as 30% aqueous suspension): Bovine Serum Albumin available from Sigma” the Percent mortality [2, 4] was 0% and the Percent mortality [2, 5] was 0%.

For C1CN2CCN1CC2 [DABCO, diazabicyclooctane], the Percent mortality ([2]; activity enhancer alone, 1000 ppm, 2 DAT) was 0%, the Percent mortality ([2]; activity enhancer alone, 1000 ppm, 7 DAT) was 0% and the Percent mortality [2, 3] was 0%.

With “BSA (as 96% powder): Bovine Serum Albumin available from Sigma” the Percent mortality [2, 4] was 0% and the Percent mortality [2, 5] was 0%.

B1: Egg albumin: Egg Albumin available from Sigma (protein, UniProt P01012 2-386, looked up)
Ovalbumin: GSIGAASMEFCFDVFKELKVHHANENIFYCPIAIMSALAMVYLGAKDSTRTQINKVVRFDKLPGFGDSIEAQCGTSVNVHSSLRDILNQITKPNDVYSFSLASRLYAEERYPILPEYLQCVKELYRGGLEPINFQTAADQARELINSWVESQTNGIIRNVLQPSSVDSQTAMVLVNAIVFKGLWEKAFKDEDTQAMPFRVTEQESKPVQMMYQIGLFRVASMASEKMKILELPFASGTMSMLVLLPDEVSGLEQLESIINFEKLTEWTSSNVMEERKIKVYLPRMKMEEKYNLTSVLMAMGITDVFSSSANLSGISSAESLKISQAVHAAHAEINEAGREVVGSAEAGVDAASVSEEFRADHPFLFCIKHIATNAVLFFGRCVSP
Molecule B1 has a Percent mortality ([2]; activity enhancer alone, 1000 ppm, 3 DAT) of 0%, a Percent mortality ([2]; activity enhancer alone, 1000 ppm, 5 DAT) of 0% and a Percent mortality ([2]; activity enhancer alone, 1000 ppm, 8 DAT) of 0%.
